Assay results: article PMC6364417, “Kinase inhibitor library screening identifies synergistic drug combinations effective in sensitive and resistant melanoma cells” (Journal of Experimental & Clinical Cancer Research : CR, 2019)

Assays:
Assay in all cases: Kinase inhibitor library screening, PrestoBlue cell viability, 1 or 10 μM, 72 h
[1] = tested on: A375-GP cells (Dabrafenib-resistant); details: A375 GP
Experimental: (§1) After 72 h of treatment, cell viability was assessed using the PrestoBlue Cell Viability Reagent (ThermoFisher Scientific). Measurements were performed with the CLARIOstar Monochromator microplate reader (BMG Labtech).
(§2) Kinase inhibitor library screening. […] Each cell line was treated in its sensitive form (parental), and also as 2 resistant derivatives, which were made resistant to either Vemurafenib (XP) or Dabrafenib (GP). Drugs were added at 2 different concentrations, 1 and 10 μM, for 72 h and cell viability was assessed using the PrestoBlue Cell Viability assay. Results are depicted as % viability compared to untreated cells. Each cell line was analyzed at least in duplicate. […] (XLSX 95 kb)

A375 cells (parental) = details: A375 Parental
Experimental: as §1, §2

[2] = tested on: A375-XP cells (Vemurafenib-resistant); details: A375 XP
Experimental: as §1, §2

[3] = tested on: IGR37-GP cells (Dabrafenib-resistant); details: IGR37 GP
Experimental: as §1, §2

[4] = tested on: 501Mel-GP cells (Dabrafenib-resistant); details: 501Mel GP
Experimental: as §1, §2

[5] = tested on: 501Mel-XP cells (Vemurafenib-resistant); details: 501Mel XP
Experimental: as §1, §2

IGR37 cells (parental) = details: IGR37 Parental
Experimental: as §1, §2

501Mel cells (parental) = details: 501Mel Parental
Experimental: as §1, §2

[6] = tested on: IGR37-XP cells (Vemurafenib-resistant); details: IGR37 XP
Experimental: as §1, §2

Row | Structure (SMILES) | cell viability (kinase inhibitor library screening) ([1]; 1μΜ, in %) | cell viability (kinase inhibitor library screening) ([1]; 10μΜ, in %) | cell viability (kinase inhibitor library screening) (A375 cells (parental); 1μΜ, in %) | cell viability (kinase inhibitor library screening) (A375 cells (parental); 10μΜ, in %) | cell viability (kinase inhibitor library screening) ([2]; 1μΜ, in %) | cell viability (kinase inhibitor library screening) ([2]; 10μΜ, in %) | cell viability (kinase inhibitor library screening) ([3]; 1μΜ, in %) | cell viability (kinase inhibitor library screening) ([3]; 10μΜ, in %) | cell viability (kinase inhibitor library screening) ([4]; 1μΜ, in %) | cell viability (kinase inhibitor library screening) ([4]; 10μΜ, in %) | cell viability (kinase inhibitor library screening) ([5]; 1μΜ, in %) | cell viability (kinase inhibitor library screening) ([5]; 10μΜ, in %) | cell viability (kinase inhibitor library screening) (IGR37 cells (parental); 1μΜ, in %) | cell viability (kinase inhibitor library screening) (IGR37 cells (parental); 10μΜ, in %) | cell viability (kinase inhibitor library screening) (501Mel cells (parental); 1μΜ, in %) | cell viability (kinase inhibitor library screening) (501Mel cells (parental); 10μΜ, in %) | cell viability (kinase inhibitor library screening) ([6]; 1μΜ, in %) | cell viability (kinase inhibitor library screening) ([6]; 10μΜ, in %) | other results
1 | COc1cc(Nc2c(C#N)cnc3cc(OCCCN4CCN(C)CC4)c(OC)cc23)c(Cl)cc1Cl [Bosutinib (SKI-606)] | 85.6 | 32.7 | 80.1 | 39.3 | 83.7 | 30.5 | 95.0 | 20.7 | 91.9 | -0.266 | 103.1 | -0.2 | 97.3 | 1.8 | 98.4 | 0.645 | 98.8 | 4.2 | –
2 | Cc1cc2c(F)c(Oc3ncnn4cc(OC[C@@H](C)O)c(C)c34)ccc2[nH]1 [Brivanib (BMS-540215)] | 103.4 | 79.9 | 105.2 | 84.3 | 104.1 | 89.7 | – | 95.2 | 106.3 | 89.6 | 100.3 | 80.7 | – | 99.8 | 104.3 | 93.4 | 107.9 | 73.1 | –
3 | Cc1cc2c(F)c(Oc3ncnn4cc(OC[C@@H](C)OC(=O)[C@H](C)N)c(C)c34)ccc2[nH]1 [Brivanib alaninate (BMS-582664)] | 98.8 | 80.1 | 104.1 | 82.8 | 105.2 | 81.3 | 99.8 | 95.3 | 107.2 | 88.2 | 97.0 | 83.1 | 107.1 | 96.2 | 99.4 | 91.7 | 99.9 | 74.9 | –
4 | CN(C)c1ccc(-c2nc3ncc(Cl)c(N4CCN(CC(=O)Nc5nccs5)CC4)c3[nH]2)cc1 [CCT129202] | – | – | – | – | – | – | – | – | – | – | – | – | – | – | – | – | – | – | cell viability (kinase inhibitor library screening) ([1]; 1μΜ, 72 h): 104.8%; cell viability (kinase inhibitor library screening) ([1]; 10μΜ, 72 h): 45.0%; cell viability (kinase inhibitor library screening) (A375 cells (parental); 10μΜ, 72 h): 45.9%; cell viability (kinase inhibitor library screening) ([2]; 1μΜ, 72 h): 105.5%; cell viability (kinase inhibitor library screening) ([2]; 10μΜ, 72 h): 49.9%; cell viability (kinase inhibitor library screening) ([3]; 1μΜ, 72 h): 88.1%; cell viability (kinase inhibitor library screening) ([3]; 10μΜ, 72 h): 76.6%; cell viability (kinase inhibitor library screening) ([4]; 1μΜ, 72 h): 99.5%; cell viability (kinase inhibitor library screening) ([4]; 10μΜ, 72 h): 41.1%; cell viability (kinase inhibitor library screening) ([5]; 1μΜ, 72 h): 85.2%; cell viability (kinase inhibitor library screening) ([5]; 10μΜ, 72 h): 16.7%; cell viability (kinase inhibitor library screening) (IGR37 cells (parental); 1μΜ, 72 h): 95.8%; cell viability (kinase inhibitor library screening) (IGR37 cells (parental); 10μΜ, 72 h): 78.6%; cell viability (kinase inhibitor library screening) (501Mel cells (parental); 1μΜ, 72 h): 93.7%; cell viability (kinase inhibitor library screening) (501Mel cells (parental); 10μΜ, 72 h): 52.8%; cell viability (kinase inhibitor library screening) ([6]; 1μΜ, 72 h): 96.6%; cell viability (kinase inhibitor library screening) ([6]; 10μΜ, 72 h): 40.5%
